The values below come from ChEMBL document CHEMBL1127133, “Substituted 6-alkyloxapenems: potent -lactamase inhibitors: synthesis and biological characterization” (Bioorg Med Chem Lett, 1993).

The nature of the data set: T1/2 (phosphate buffer pH 7.0 @ 28 degree C). It counts as ADME.

SMILES strings stand for the structures. Where only a bound is given, the exact number is not on record here.

`CC(=O)NC[C@H]1C(=O)N2C(C(=O)[O-])=C(C(C)(C)C)O[C@H]12.[Na+]` returned a half-life below 180 min.
Turning to `CC(C)(C)C1=C(C(=O)[O-])N2C(=O)[C@H]([C@H](O)CCc3ccccc3)[C@H]2O1.[Na+]`, the half-life is 1260 min.
As for `CC(C)(C)C1=C(C(=O)[O-])N2C(=O)[C@H](CNC(=O)COc3ccccc3)[C@H]2O1.[Na+]`, the half-life is 342 min.
`CC(C)(C)C1=C(C(=O)[O-])N2C(=O)[C@H](CN)[C@H]2O1.[Na+]` gave a half-life of 72 min.
Take `COC(=O)[C@H](O)[C@H]1C(=O)N2C(C(=O)[O-])=C(C(C)(C)C)O[C@H]12.[Na+]`: the half-life is 402 min.
For `CC(C)(C)OC(=O)[C@H](O)[C@H]1C(=O)N2C(C(=O)[O-])=C(C(C)(C)C)O[C@H]12.[Na+]`, the half-life is 642 min.
`CC(C)(C)C1=C(C(=O)[O-])N2C(=O)[C@H](CNS(C)(=O)=O)[C@H]2O1.[Na+]` had a half-life of 132 min.
Compound `O=C([O-])[C@H]1/C(=C/CO)O[C@@H]2CC(=O)N21.[K+]` [CLAVULANATE POTASSIUM] showed a half-life of 3600 min.
`CC(C)(C)C1=C(C(=O)[O-])N2C(=O)[C@H]([C@H](O)c3ccccc3)[C@H]2O1.[Na+]`: the half-life is 420 min.
In the case of `CC(C)(C)C1=C(C(=O)[O-])N2C(=O)[C@H](CO)[C@@H]2O1.[Na+]` it was 144 min; in that of `CC(C)(C)C1=C(C(=O)[O-])N2C(=O)[C@H]([C@@H](O)CCc3ccc(O)cc3)[C@@H]2O1.[Na+]`, 708 min; in that of `CC(C)(C)C1=C(C(=O)[O-])N2C(=O)[C@H]([C@@H](O)CCc3ccccc3)[C@H]2O1.[Na+]`, 2340 min.
As for `Cn1cc([C@@H](O)[C@H]2C(=O)N3C(C(=O)[O-])=C(C(C)(C)C)O[C@H]23)nn1.[Na+]`, the half-life was 408 min.
As to `CC(C)(C)C1=C(C(=O)[O-])N2C(=O)[C@H]([C@H](O)c3ccccc3)[C@@H]2O1.[Na+]`, the half-life was 30 min.
The compound `CC(C)(C)C1=C(C(=O)[O-])N2C(=O)[C@H](CO)[C@H]2O1.[Na+]` gave a half-life of 300 min.
Turning to `CC(C)(C)C1=C(C(=O)[O-])N2C(=O)[C@H]([C@@H](O)c3ccccc3)[C@H]2O1.[Na+]`, the half-life is 534 min.
On to `CC(C)(C)C1=C(C(=O)[O-])N2C(=O)[C@H]([C@@H](O)c3ccncc3)[C@H]2O1.[Na+]`, for which the half-life is 360 min.
`CC(C)(C)C1=C(C(=O)[O-])N2C(=O)[C@H](CNC(=O)COC(=O)Cc3ccccc3)[C@H]2O1.[Na+]`: the half-life is 558 min.
Compound `C[C@H](F)[C@H]1C(=O)N2C(C(=O)[O-])=C(C(C)(C)C)O[C@H]12.[Na+]` gave a half-life of 432 min.
In the case of `C[C@@H](O)[C@H]1C(=O)N2C(C(=O)[O-])=C(C(C)(C)C)O[C@@H]12.[Na+]` it was 384 min; in that of `CC(C)(C)C1=C(C(=O)[O-])N2C(=O)[C@H](CNC(=O)[C@H](N)c3ccccc3)[C@H]2O1.[Na+]`, 132 min.
With `CC(C)(C)C1=C(C(=O)[O-])N2C(=O)[C@H](CNC(=O)Cc3ccccc3)[C@H]2O1.[Na+]`, the half-life was 330 min.
With `CC(C)(C)C1=C(C(=O)[O-])N2C(=O)[C@H]([C@@H](O)c3ccccc3)[C@@H]2O1.[Na+]`, the half-life was 132 min.
In the case of `C[C@H](O)[C@H]1C(=O)N2C(C(=O)[O-])=C(C(C)(C)C)O[C@H]12.[Na+]` it was 426 min.
As for `CC(C)(C)C1=C(C(=O)[O-])N2C(=O)[C@H]([C@@H](O)c3ccc(O)cc3)[C@H]2O1.[Na+]`, the half-life was 618 min.
Next, `CC(C)(C)C1=C(C(=O)[O-])N2C(=O)[C@H]([C@H](O)c3ccncc3)[C@H]2O1.[Na+]`: 384 min; `CC(C)(C)C1=C(C(=O)[O-])N2C(=O)[C@H]([C@@H](O)CCc3ccc(O)cc3)[C@H]2O1.[Na+]`: 1270 min; `COC(=O)[C@@H](O)[C@H]1C(=O)N2C(C(=O)[O-])=C(C(C)(C)C)O[C@H]12.[Na+]`: 372 min.
The compound `C[C@@H](O)[C@H]1C(=O)N2C(C(=O)[O-])=C(C(C)(C)C)O[C@H]12.[Na+]` showed a half-life of 486 min.
Consider `CC(C)(C)C1=C(C(=O)[O-])N2C(=O)[C@H]([C@@H](O)CCc3ccncc3)[C@H]2O1.[Na+]`, for which the half-life was 948 min.
In the case of `CC(C)(C)C1=C(C(=O)[O-])N2C(=O)[C@H](CNC(=O)CCNC(=O)Cc3ccccc3)[C@H]2O1.[Na+]`, the half-life is 330 min.
For the compound `CC(C)(C)C1=C(C(=O)[O-])N2C(=O)[C@H](CNS(=O)(=O)Cc3ccccc3)[C@H]2O1.[Na+]`, the half-life was 534 min.
For the compound `CC(C)(C)C1=C(C(=O)[O-])N2C(=O)[C@H]([C@H](O)CCc3ccncc3)[C@@H]2O1.[Na+]`, the half-life was 426 min.
Next, `Cn1cc([C@H](O)[C@H]2C(=O)N3C(C(=O)[O-])=C(C(C)(C)C)O[C@H]23)nn1.[Na+]`: 420 min.
Compound `CC(C)(C)C1=C(C(=O)[O-])N2C(=O)[C@H]([C@H](O)CCc3ccncc3)[C@H]2O1.[Na+]` gave a half-life of 822 min.
`CC(C)(C)C1=C(C(=O)[O-])N2C(=O)[C@H]([C@H](O)CCc3ccc(O)cc3)[C@H]2O1.[Na+]` showed a half-life of 1480 min.
`C[C@@H](F)[C@H]1C(=O)N2C(C(=O)[O-])=C(C(C)(C)C)O[C@H]12.[Na+]` had a half-life of 210 min.
The compound `CC(C)(C)C1=C(C(=O)[O-])N2C(=O)[C@H](CNC(=O)CNC(=O)Cc3ccccc3)[C@H]2O1.[Na+]` showed a half-life of 396 min.

What is called half-life is the time needed for the level to fall by half in the phase considered. The low end stands for fast loss, the high end for slow loss.
